Assay results published in PMC4045134, “Discovery of Triterpenoids as Reversible Inhibitors of α/β-hydrolase Domain Containing 12 (ABHD12)” (PLoS ONE, 2014).
Entries after “also recorded” stand apart in the source; their conditions may differ. Where two headings read alike, the source gives them in different places.

Experiments:
Type in all cases: biochemical
hMAGL = molecular target: T1, hMAGL (Homo sapiens, UniProt Q99685); experiment: Fluorescent glycerol assay in hMAGL-HEK293 lysates; settings: 10 µM; read-out: hMAGL Remaining activity % control ± s.e.m (n=3)
T1 construct: expressed in transfected cells; host or cells: HEK293 (transient)
T1 sequence (Q99685 1-303): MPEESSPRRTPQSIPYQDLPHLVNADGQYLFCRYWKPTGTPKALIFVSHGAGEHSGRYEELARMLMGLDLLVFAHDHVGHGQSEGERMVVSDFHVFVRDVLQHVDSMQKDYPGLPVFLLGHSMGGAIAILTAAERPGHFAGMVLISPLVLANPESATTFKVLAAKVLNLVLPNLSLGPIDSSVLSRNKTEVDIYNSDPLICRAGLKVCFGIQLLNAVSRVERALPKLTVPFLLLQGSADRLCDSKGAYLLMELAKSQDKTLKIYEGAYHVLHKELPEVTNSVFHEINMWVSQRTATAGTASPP
Experimental: (§1) Glycerol liberated from 1-AG hydrolysis was determined with a sensitive fluorescent assay using lysates of HEK293 cells with transient overexpression of hABHD12, hABHD6 or hMAGL, essentially as previously described. […] Fluorescence (λex 530; λem 590 nm) was monitored using a Tecan Infinite M200 plate reader (Tecan Group Ltd., Männedorf, Switzerland). Inhibitory activities of selected compounds towards FAAH were determined using membranes of hFAAH overexpressing COS-7 cells, essentially as previously described. The final incubation volume (100 µL) contained 1 µg of protein and the substrate concentration was 20 µM (10 nM of ^3H-anandamide having specific activity of 60 Ci/mmol and concentration of 1 mCi/mL).

hCB2R = molecular target: T2, hCB2R (Homo sapiens, UniProt P34972); experiment: [35S]GTPγS binding, CB2R agonist activity, hCB2R-CHO cell membranes; settings: 10 µM
T2 construct: expressed in transfected cells; host or cells: CHO

CB1R [1] = molecular target: T3, CB1R (Rattus norvegicus, UniProt P20272); experiment: [35S]GTPγS binding, CB1R agonist activity, rat cerebellar membranes; settings: 10 µM
T3 construct: membranes prepared from brain tissue of 4-week-old male rodents were used; from tissue; host or cells: rat cerebellar membranes
Experimental: (§2) The CB1 and CB2 receptor activity of the selected compounds (10 µM) were measured using the GTPγS binding assay according to the previously described methods, [33].
(§3) For ABPP experiments (Figure 6C) and cannabinoid receptor activity assays (Table S2), membranes prepared from brain tissue of 4-week-old male rodents were used. The animals were obtained from the National Laboratory Animal Centre, University of Eastern Finland. Approval for the harvesting of animal tissue was obtained from the local welfare officer of the University of Eastern Finland.

CB1R [2] = molecular target: T3, CB1R; experiment: [35S]GTPγS binding, CB1R antagonist activity, rat cerebellar membranes; settings: 10 µM
Experimental: as §2, §3

hABHD12 [3] = molecular target: T4, hABHD12 (Homo sapiens, UniProt Q8N2K0); experiment: Competitive ABPP with TAMRA-FP in hABHD12-HEK293 lysates; settings: 1 h inhibitor, 5 min probe
T4 construct: expressed in transfected cells; host or cells: HEK293 (transient)
T4 sequence (Q8N2K0 1-398): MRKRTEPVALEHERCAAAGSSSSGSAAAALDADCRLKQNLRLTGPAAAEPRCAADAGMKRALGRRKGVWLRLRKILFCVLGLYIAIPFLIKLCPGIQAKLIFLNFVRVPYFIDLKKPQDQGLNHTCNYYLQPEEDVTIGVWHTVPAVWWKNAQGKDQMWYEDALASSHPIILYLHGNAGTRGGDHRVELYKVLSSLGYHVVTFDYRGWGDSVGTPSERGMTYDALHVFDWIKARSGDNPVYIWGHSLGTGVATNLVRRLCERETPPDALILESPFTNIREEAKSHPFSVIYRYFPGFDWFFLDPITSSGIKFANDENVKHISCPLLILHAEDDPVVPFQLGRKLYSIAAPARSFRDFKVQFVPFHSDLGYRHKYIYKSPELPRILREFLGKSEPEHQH
Experimental: (§4) Competitive ABPP using HEK293 cell lysates and mouse brain membranes was conducted to visualize effects of selected triterpenoids on the binding of the active site serine-targeting fluorescent fluorophosphonate probe TAMRA-FP following outlines of previous protocols, [31]. Briefly, lysates (25 µg) of HEK293 cells with or without (Mock) hABHD12 overexpression or mouse wholebrain membranes (100 µg) were treated for 1 h with DMSO or the inhibitor, after which TAMRA-FP labelling was conducted for 5 min (lysates) or 1 hour (membranes) at RT (final probe concentration 2 µM). The reaction was quenched by addition of gel loading buffer (followed by boiling for 5 min in the case of lysates), after which 10 µg protein (10 µl) was loaded per lane and the proteins were resolved in 10% SDS-PAGE together with standards. TAMRA-FP labeling was visualized (λex 552; λem 575 nm) by a fluorescent reader (FLA-3000 laser fluorescence scanner, Fujifilm, Tokyo, Japan). The intensity of bands was quantified using ImageJ, a freely available image analysis software (http://rsbweb.nih.gov/ij/).

[4] = test system: metabolic serine hydrolases; experiment: Competitive ABPP, other serine hydrolases of mouse brain membrane proteome
Experimental: as §4
For ABPP experiments (Figure 6C) and cannabinoid receptor activity assays (Table S2), membranes prepared from brain tissue of 4-week-old male rodents were used. The animals were obtained from the National Laboratory Animal Centre, University of Eastern Finland. […]

hABHD6 = molecular target: T5, hABHD6 (Homo sapiens, UniProt Q9BV23); experiment: Fluorescent glycerol assay in hABHD6-HEK293 lysates; settings: 10 µM; NI = no inhibition at 10 µM; read-out: hABHD6 Remaining activity % control ± s.e.m (n=3)
T5 construct: expressed in transfected cells; host or cells: HEK293 (transient)
T5 sequence (Q9BV23 1-337): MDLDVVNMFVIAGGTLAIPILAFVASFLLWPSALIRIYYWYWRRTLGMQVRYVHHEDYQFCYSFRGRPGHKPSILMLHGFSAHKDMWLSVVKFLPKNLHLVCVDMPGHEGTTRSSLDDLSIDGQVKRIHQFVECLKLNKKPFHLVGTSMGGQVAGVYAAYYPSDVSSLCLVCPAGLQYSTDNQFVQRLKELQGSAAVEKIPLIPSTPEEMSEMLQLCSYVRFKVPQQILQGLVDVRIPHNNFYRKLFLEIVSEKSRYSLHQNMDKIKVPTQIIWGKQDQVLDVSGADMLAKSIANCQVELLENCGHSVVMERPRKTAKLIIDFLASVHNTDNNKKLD
Experimental: as §1

hFAAH = molecular target: T6, hFAAH (Homo sapiens, UniProt O00519); experiment: FAAH activity, membranes of hFAAH overexpressing COS-7 cells, 3H-anandamide; settings: read-out: hFAAH Remaining activity % control (mean (range)), n=2
T6 construct: expressed in transfected cells; host or cells: COS-7
T6 sequence (O00519 1-579): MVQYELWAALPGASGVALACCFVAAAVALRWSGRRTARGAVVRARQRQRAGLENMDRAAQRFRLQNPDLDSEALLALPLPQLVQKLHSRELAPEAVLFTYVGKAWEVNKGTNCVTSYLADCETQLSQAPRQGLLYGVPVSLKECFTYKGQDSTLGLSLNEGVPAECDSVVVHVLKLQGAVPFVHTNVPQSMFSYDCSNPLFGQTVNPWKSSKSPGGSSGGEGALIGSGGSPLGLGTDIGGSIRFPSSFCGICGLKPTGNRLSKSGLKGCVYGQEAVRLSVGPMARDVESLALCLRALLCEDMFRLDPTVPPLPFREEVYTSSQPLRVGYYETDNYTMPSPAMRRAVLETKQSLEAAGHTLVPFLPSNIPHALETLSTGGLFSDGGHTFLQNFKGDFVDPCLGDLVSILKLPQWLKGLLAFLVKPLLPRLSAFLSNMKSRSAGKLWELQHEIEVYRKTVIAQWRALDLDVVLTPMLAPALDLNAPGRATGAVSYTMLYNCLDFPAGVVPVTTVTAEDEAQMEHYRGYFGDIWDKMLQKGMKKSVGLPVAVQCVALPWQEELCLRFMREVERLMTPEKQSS
Experimental: as §1

ABHD12 = molecular target: T7, ABHD12 (Mus musculus, UniProt Q99LR1); experiment: Competitive ABPP with TAMRA-FP in mouse brain membrane proteome; settings: mouse brain membranes, 1 h inhibitor, 1 h probe
T7 construct: the sole serine hydrolase targeted by the triterpenoids in native brain membrane proteome; from tissue; host or cells: mouse whole-brain membranes
T7 sequence (Q99LR1 1-398): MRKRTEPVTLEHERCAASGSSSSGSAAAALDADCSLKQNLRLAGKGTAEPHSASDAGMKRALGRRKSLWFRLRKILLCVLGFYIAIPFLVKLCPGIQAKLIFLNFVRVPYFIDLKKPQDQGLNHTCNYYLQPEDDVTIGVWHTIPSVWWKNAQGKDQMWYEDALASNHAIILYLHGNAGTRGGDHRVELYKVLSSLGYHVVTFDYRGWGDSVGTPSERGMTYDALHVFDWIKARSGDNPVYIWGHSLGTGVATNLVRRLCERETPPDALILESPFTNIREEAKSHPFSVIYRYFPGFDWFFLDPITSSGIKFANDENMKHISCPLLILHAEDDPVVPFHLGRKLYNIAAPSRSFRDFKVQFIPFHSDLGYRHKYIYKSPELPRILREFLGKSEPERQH
Experimental: as §4, §3

hABHD12 [5] = molecular target: T4, hABHD12; experiment: Fluorescent glycerol assay of 1-AG hydrolysis in hABHD12-HEK293 lysates; settings: hABHD12-HEK293 lysates; for Emax: read-out: max inhibition (converted)
Experimental: as §1

hABHD12 [6] = molecular target: T4, hABHD12; experiment: Reversibility testing, 40-fold dilution of enzyme-inhibitor complex; settings: time points 10, 20, 30, 60 and 90 min
Experimental: Reversibility testing was carried out as previously described. Briefly, DMSO/inhibitor (0.5 µl) was incubated together with hABHD12-HEK293 lysate (4.5 µl, 0.3 µg protein/well) in TEMN-BSA buffer for 30 min. After this, a 40-fold dilution of enzyme-inhibitor complex was brought about by addition of the substrate [1-AG, 12.5 µM final concentration, containing additionally 1% EtOH (v/v)] in 195 µl of glycerol assay mix and fluorescence was kinetically monitored at 10 min intervals for 90 min at RT.

[7] = three independent experiments, read-out: -logIC50±s.e.m. (converted)

T3 sequence (P20272 whole entry): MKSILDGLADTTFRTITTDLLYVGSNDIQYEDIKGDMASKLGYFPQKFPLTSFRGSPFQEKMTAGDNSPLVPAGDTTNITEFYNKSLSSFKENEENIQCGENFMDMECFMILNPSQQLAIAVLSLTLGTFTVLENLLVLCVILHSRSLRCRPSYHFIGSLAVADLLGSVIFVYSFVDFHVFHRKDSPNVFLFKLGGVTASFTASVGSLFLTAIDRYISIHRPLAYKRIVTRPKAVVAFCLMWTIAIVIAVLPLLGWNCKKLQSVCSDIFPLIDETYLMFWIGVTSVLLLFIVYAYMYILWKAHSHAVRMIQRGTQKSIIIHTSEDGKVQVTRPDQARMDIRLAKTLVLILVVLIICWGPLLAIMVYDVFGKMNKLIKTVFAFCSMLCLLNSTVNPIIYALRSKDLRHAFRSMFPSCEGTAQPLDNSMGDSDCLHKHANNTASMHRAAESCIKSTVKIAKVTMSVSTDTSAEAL
T2 sequence (P34972 whole entry): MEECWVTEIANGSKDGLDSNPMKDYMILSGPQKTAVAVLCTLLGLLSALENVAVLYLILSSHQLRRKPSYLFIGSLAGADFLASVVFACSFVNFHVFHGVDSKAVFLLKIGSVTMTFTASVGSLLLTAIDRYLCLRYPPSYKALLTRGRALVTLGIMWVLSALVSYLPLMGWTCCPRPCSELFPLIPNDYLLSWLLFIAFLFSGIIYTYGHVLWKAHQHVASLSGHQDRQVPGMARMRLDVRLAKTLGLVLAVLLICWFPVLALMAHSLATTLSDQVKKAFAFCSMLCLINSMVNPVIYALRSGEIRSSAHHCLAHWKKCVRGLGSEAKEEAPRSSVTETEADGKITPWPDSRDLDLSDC

Row | Compound | remaining activity at 10 µM (hMAGL) [%] | CB2R agonist activity [35S]GTPγS binding % Basal (Mean (range), n=2) (hCB2R) | CB1R agonist activity [35S]GTPγS binding % Basal (Mean (range), n=2) (CB1R [1]) | CB1R antagonist activity [35S]GTPγS binding % HU210-evoked response (Mean (range), n=2) (CB1R [2]) | TAMRA-FP probe labeling of hABHD12 (hABHD12 [3]) | additional targets among the metabolic serine hydrolases [4] | remaining activity at 10 µM (hABHD6) [%] | remaining activity at 10 µM (hFAAH) [%] | TAMRA-FP probe labeling of ABHD12 (ABHD12) | IC50 (hABHD12 [5]; [7]) [nM] | Emax (hABHD12 [5]) [%] | time-dependency of inhibitor potency (IC50) after 40-fold dilution (hABHD12 [6]) | IC50 (hABHD12 [5]; read-out: IC50) [nM] | remaining activity at 10 µM (hABHD12 [5]; 10 µM, NI = no inhibition, read-out: Remaining activity at 10 µM % ± s.e.m.) [%]
1 | CC(C)[C@@H]1CC[C@]2(C(=O)O)CC[C@]3(C)[C@H](CC[C@@H]4[C@@]5(C)CCC(=O)C(C)(C)[C@@H]5CC[C@]43C)[C@@H]12 [Compound 23] | 77.5 ± 3.1 | 98 (95-100) % Basal | 89 (86-92) % Basal | 92 (90-95) % HU210-evoked response | dose-dependently inhibited probe labeling of hABHD12 | no additional targets are evident | 83 ± 2.8 | 98 | selectively inhibited probe labeling of ABHD12; also recorded: dose-dependently inhibit TAMRA-FP labeling of ABHD12 already at 20 µM | 1620 | 89 |  |  | 
2 | C=C(C)[C@@H]1CC[C@]2(C(=O)O)CC[C@]3(C)[C@H](CC[C@@H]4[C@@]5(C)Cc6c([nH]c7ccc(OC)cc67)C(C)(C)[C@@H]5CC[C@]43C)[C@@H]12 [Compound 34] |  |  |  |  |  |  |  |  |  | 1620 | 100 | time-dependent drop of inhibitor potency |  | 
3 | C=C(C)C1CCC2(C(=O)O)CCC3(C)C(CCC4C5(C)Cc6c([nH]c7ccccc67)C(C)(C)C5CCC43C)C12 (stereo not drawn) [Compound 33] | 74.8 ± 4.6 | 102 (90-114) % Basal | 95 (94-96) % Basal | 97 (96-98) % HU210-evoked response |  |  | 81 ± 4.3 | 90 |  | 933 | 65 | time-dependent drop of inhibitor potency | 900 | 
4 | C=C(C)[C@@H]1CC[C@]2(C(=O)N3CCCCC3)CC[C@]3(C)[C@H](CC[C@@H]4[C@@]5(C)CC[C@H](O)C(C)(C)[C@@H]5CC[C@]43C)[C@@H]12 [Compound 22] |  |  |  |  | lacked activity; also recorded: ineffective |  |  |  | ineffective, even at 200 µM concentration |  |  |  |  | 94 ± 0.5
5 | CCCCCCCCCCC[C@@H](C[C@@H]1OC(=O)[C@H]1CCCCCC)OC(=O)[C@H](CC(C)C)NC=O [THL, tetrahydrolipstatin, reference compound] |  |  |  |  | fully prevented |  |  |  | prevented TAMRA-FP labeling |  |  | remained constant; also recorded: does not change in a statistically significant manner |  | 
